From paper PMC11652163, “Impact of fresh grape juice on the pharmacokinetics of omeprazole: results of a food–drug interaction study” (Frontiers in Pharmacology, 2024)
Like-named read-outs stand apart in the source and are kept apart here. Values belong to the compound of their own block, whether it stands above or below them.

What was measured:
[1] = Pharmacokinetics of oral omeprazole (40 mg) alone or with fresh grape juice in healthy male volunteers, plasma HPLC-UV, non-compartmental analysis; assay type: in vivo, human; conditions: for AUC / Tmax / Cmax: male, human, plasma; for AUC / Cmax: 40 mg
Method: The open-label and randomized study design was used to conduct the study in normal, healthy male volunteers. All volunteers were directed not to take any type of medication, including herbal medicines, for 2 weeks prior to clinical trials. Volunteers were divided into two groups. In treatment period-I, after overnight fasting, volunteers in group A received omeprazole (40 mg) alone, and volunteers in group B, […], were administered omeprazole (40 mg) along with grape juice (≈ 250 mL) on the fourth day. […] The volunteers in group B were given omeprazole (40 mg) alone. […] Blood samples (≈ 3 mL) were collected from each volunteer before the administration of the drug, as a blank, and following the administration of the drug at 0 […], and 24 h, in EDTA blood collection tubes. […] It was then centrifuged at 5,000 rpm for 5 min at -3°C. The supernatant was removed and evaporated in a nitrogen flux and then reconstituted in the mobile phase up to 0.5 mL and stored in a refrigerator. The samples were analyzed using a validated HPLC/UV-Vis chromatographic method developed for plasma sample analysis. The plasma samples were thawed on ice at room temperature and processed for analysis using the developed method. A calibration curve was plotted for varying concentrations of omeprazole, keeping the concentration of pantoprazole constant, and used as an internal standard. […] The concentration of pantoprazole was kept at 1 μg/ml as an internal standard. The concentration of omeprazole was 1 μg/mL, 1.5 μg/mL, and 2 μg/mL, and the concentration of internal standard was 1 μg/mL. The pharmacokinetic parameters of plasma omeprazole were calculated for each individual, using non-compartmental analysis of plasma concentration-time data with the help of PK-Summit® software. Cmax, the maximum plasma concentration, and tmax, the time to reach the maximum plasma concentration, were directly calculated from the analyzed data. The terminal half-life was calculated using the equation 0.693/kel, where kel represents the value of the elimination rate constant. The area under the plasma concentration-time curve was calculated according to the trapezoidal rule over the time interval 0 to the last measurable concentration (AUC0-t) and subsequent extrapolation to time infinity (AUC0-∞). The first moment of the plasma concentration vs. time curve (AUMC) is the plasma concentration multiplied by time vs. the time curve calculated by the same trapezoidal rule. The total body clearance (CL/F) was calculated as dose/AUC0-∞. The volume of distribution was calculated by multiplying total body clearance with the mean residence time (MRT). Statistical analysis was performed by paired t-test, and the pharmacokinetic parameters of omeprazole with water were compared with the parameters obtained from omeprazole administered with grape juice.

[2] = previously reported range; cited from earlier work
[3] = Pharmacokinetics of oral omeprazole (40 mg) alone or with fresh grape juice in healthy male volunteers, plasma HPLC-UV, non-compartmental analysis; assay type: in vivo, human; conditions: regular intake of 250 mL grape juice for 1 week before omeprazole
[4] = with repeated doses; cited from earlier work
[5] = tested on: H+/K+ ATPase or proton pump in parietal cells; parameters: method as in Kromer et al., 1999; conditions: ref Kromer et al., 1999; cited from earlier work
[6] = parameters: method as in Dong et al., 1999; conditions: following administration of grape juice, healthy Chinese subjects; ref Dong et al., 1999; cited from earlier work

- AUC ([1]; oral, omeprazole 40 mg with water, read-out: AUC0 ∞): 6000 ± 1540 ng·h/mL
- Tmax ([1]; oral, omeprazole 40 mg co-administered with fresh grape juice, read-out: mean time to reach the maximum plasma concentration (converted)): 2.09 h
- Cmax ([1]; po, omeprazole 40 mg oral alone with water, mean): 1950 ng/mL
- AUC ([1]; po, omeprazole 40 mg oral alone with water, mean, read-out: AUC0t): 5840 ng·h/mL
- AUC ([1]; po, omeprazole 40 mg oral alone with water, mean, read-out: AUC0∞): 6000 ng·h/mL
- AUC ([1]; po, omeprazole 40 mg oral alone with water, read-out: AUC0 t): 5840 ng·h/mL
- AUC ([1]; po, omeprazole 40 mg oral alone, Table 4, read-out: AUC0∞): 6000 ng·h/mL
- Cmax ([1]; po, omeprazole 40 mg oral with 250 mL fresh grape juice after prior juice intake, mean): 1020 ng/mL
- AUC ([1]; po, omeprazole 40 mg oral with fresh grape juice, mean, read-out: AUC0 t): 2830 ng·h/mL
- AUC ([1]; po, omeprazole 40 mg oral with fresh grape juice, mean, read-out: AUC0∞): 2910 ng·h/mL
- Tmax ([1]; omeprazole 40 mg oral with fresh grape juice, mean, read-out: Tmax): 2.09 h
- AUMC0∞ ([1]; omeprazole 40 mg oral alone with water, mean): 19.6 µg.hr*hr/mL
- AUMC0∞ ([1]; omeprazole 40 mg oral alone, Table 4): 19.6 µg.hr*h/mL
- AUMC0∞ ([1]; omeprazole 40 mg oral with fresh grape juice, mean): 10.36 µg.h*h/mL
- AUMC0∞ ([1]; omeprazole 40 mg oral with grape juice, Table 4): 10.36 µg.hr*h/mL
- effect of grape juice on mean value of clearance ([1]; omeprazole with grape juice versus alone): increased
- Ratio (OMP + juice/OMP) of AUC0 t ([1]; with grape juice versus alone): 0.4846
- Ratio (OMP + juice/OMP) of AUC0∞ ([1]; with grape juice versus alone): 0.485
- Ratio (OMP + juice/OMP) of AUMC0∞ ([1]; with grape juice versus alone): 0.5286
- Ratio (OMP + juice/OMP) of Cmax ([1]; with grape juice versus alone): 0.5212
- Ratio (OMP + juice/OMP) of Tmax ([1]; with grape juice versus alone): 1.045
- effect of grape juice on half-life [3]: not affected
Structure (SMILES): COc1ccc2[nH]c([S+]([O-])Cc3ncc(C)c(OC)c3C)nc2c1 (centres unmarked) [Omeprazole]
- tmax, range already reported [2]: 2 to 3 h
- increase of bioavailability [4]: up to 60%
- duration of inhibition of gastric acid secretion [5]: up to 36 h

Structure (SMILES): CCOc1ccc(NC(C)=O)cc1 [phenacetin]
- change of AUC [6]: reduced AUC
